Data set [1] is described as follows: Small Burner test, DIN 4102-1 class B2, edge application of flame. The note with it: spray foam. How it is done:
The Small Burner test equipment employed within this patent is in accordance to the requirements for the tests of the building materials class B2 specified in DIN 4102-1.
All flame tests done within this report are based on edge application of the impinging flame.
The B2-burner tests were carried out approx. one week after foaming.

The nature of data set [2]: BKZ flammability test (Swiss standard, vertical burning). The method, then: The synthesized compounds were evaluated for flame retardant properties by incorporating them in flexible PU foams.
The flexible polyurethane foams were manufactured according to the recipe mentioned in Table 3 below.
The manufacture of the foams according to the formulations in Table 3 was done by handmix in the laboratory based on 200 gms polyol. The formulation of the components taking part in the reaction was identical in all cases except for the addition of Flame retardants where indicated.
The resulting foams were dried and aged for 3 h at 80° C. The foams were then tested for their flammability according to Swiss flammability standard (BKZ). It's a vertical burning test for foamed materials with a specific sample size (length: 160 mm, width: 60 mm, thickness: 6 mm±10% tolerance). For each specimen flame test (BKZ) was performed in triplicate. If the results were not consistent, each specimen was tested 6 times. For the BKZ test an air dried specimen was placed in a vertical position and subjected to flame from the lower front edge by a standardized flame. The flame height of 20 mm was maintained and should burn constantly with sharp outlines. The burner position was adjusted 45° so that the flame hits the specimen vertically in the middle of the lower front edge. The flame is brought in contact with the foam for 15 sec and should be placed such that the foam bottom is approximately 4±1 mm inside the flame from the tip.

The nature of data set [3]: UL-94 HB test (ASTM D4986 or ISO/DIS 9772.3, horizontal). Particulars: for UL 94 HB test rating (Horizontal): OH terminated prepolymer foam; for flame retardancy effect compared to unmodified DOPO: Table 6.
The nature of data set [4]: Water solubility of DOPO compounds. It counts as physicochemical. Particulars: for water solubility in words: up to 90° C.; for solubility: water. The text has this:
These DOPO-derivatives are very barely soluble in water as it is exemplarily shown for EDAB-DOPO and TEPA-PDOPO in table 2.

Data set [5] in a line: TGA thermal decomposition of DOPO and amino DOPO derivatives. Type of data set: physicochemical. Particulars: for TdMax: Temperature for maximum decomposition rate: several values = multiple decomposition stages. How it is done:
One of the important objectives of developing various amino derivatives of DOPO was to improve the thermal stability of DOPO itself. This will ensure their suitability to be used in thermoplastic polymers which require usually high processing temperatures (200-350° C.).

Setting [6] is: 5% FR in flexible PU foam (Table 3 recipe, handmix).
The mark [7] stands for this setting: 25° C., read-out: solubilitiy FR in water mg/L.
[8] abbreviates: 25° C., read-out: solubilitiy FR in water mmol/L.
Setting [9] is: 90° C., read-out: solubilitiy FR in water mg/L.
The mark [10] stands for this setting: 90° C., read-out: solubilitiy FR in water mmol/L.

The structures appear in SMILES notation. Read-outs that look alike come from different tables or passages of the source.

As to `O=P1(NCCN(CCN(CCN(CCNP2(=O)Oc3ccccc3-c3ccccc32)P2(=O)Oc3ccccc3-c3ccccc32)P2(=O)Oc3ccccc3-c3ccccc32)P2(=O)Oc3ccccc3-c3ccccc32)Oc2ccccc2-c2ccccc21` (centres unmarked) [TEPA-PDOPO, tetraethylenepentaamine DOPO], the “effect of doubling the amount of FR on flame height and extinguishing of the flame” value in data set [1] is recorded as “no significant effect”. Also, in data set [2] (setting [6]), the “BKZ Classification” value is listed as “Class 5 (flame does not reach the top level of the sample holder (150 mm). duration ≦ 20 s)”. Besides, the “BKZ Class (Vertical)” value in data set [2] (10 pphp FR, OH terminated prepolymer foam) is 5. Further, the “effect of more FR on flammability behavior” value in data set [2] (OH terminated prepolymer foam, 5 vs 10 pphp, horizontal and vertical tests) is “improves flammability behavior in both horizontal and vertical tests”. For the same molecule, in data set [3] (5% FR in flexible PU foam), the “UL-94 HB Rating” value is recorded as “HF-1”. For the same molecule, the “UL 94 HB test rating (Horizontal)” value in data set [3] (5 pphp FR) was “HF2”; in data set [3] (10 pphp FR), “HF1”. Moreover, in data set [4], the “water solubility in words” value is reported as “only very small amounts”. Also, the solubility amounted to 15.4 mg/L in data set [4] (setting [7]), 0.01 mmol/L in data set [4] (setting [8]), 818 mg/L in data set [4] (setting [9]) and 0.65 mmol/L in data set [4] (setting [10]).

Regarding `CCO[Si](CCCNP1(=O)Oc2ccccc2-c2ccccc21)(OCC)OCC` (centres unmarked) [TESPA-DOPO], in data set [5], the “Td1: Temperature for 10% weight loss” value worked out at 234 °C, the “% Char at 800° C.” value is given as 28% and the “TdMax: Temperature for maximum decomposition rate” value (shortened to “TdMax: Temperature”) is 135/287/437.

In the case of `O=[PH]1Oc2ccccc2-c2ccccc21` (centres unmarked) [DOPO, 9,10-dihydro-9-oxa-phosphaphenanthrene-10-oxide, reference compound], the “BKZ Classification” value in data set [2] (setting [6]) is “Class 5 (flame does not reach the top level of the sample holder (150 mm). duration ≦ 20 s)”. In data set [5], the “Td1: Temperature for 10% weight loss” value was 201 °C, the “temperature at which decomposition starts” value was under 200 °C, the “% Char at 800° C.” value is recorded as 2% and the “TdMax: Temperature” value is 267 °C. In data set [3] (5% FR in flexible PU foam), the “Burning Rate” value was found to be 48 mm/min and the “UL-94 HB Rating” value is “HBF”.

Take `C=CCNP1(=O)Oc2ccccc2-c2ccccc21` (centres unmarked) [AA-DOPO]: the “BKZ Classification” value in data set [2] (setting [6]) was “Class 5 (flame does not reach the top level of the sample holder (150 mm). duration ≦ 20 s)”. In data set [5], the “Td1: Temperature for 10% weight loss” value amounted to 247 °C, the “% Char at 800° C.” value came to 3% and the “TdMax: Temperature” value is 295 °C. In data set [3] (5% FR in flexible PU foam), the “Burning Rate” value is 47 mm/min, the “UL-94 HB Rating” value is “HF-2” and the “flame retardancy effect compared to unmodified DOPO” value is “better flame retardancy effect as compared to unmodified DOPO”.

For the molecule `CC(CCl)OP(=O)(OC(C)CCl)OC(C)CCl` (centres unmarked) [TCPP, Tris(2-chlorisopropyl)phosphate, reference compound], the “BKZ Classification” value in data set [2] was “Class 5 (key: Class 3: time 5-20 s; Class 4: time, duration of burning > 20 s; Class 5: flame does not reach the top level of the sample holder (150 mm). duration ≦ 20 s)”. Besides, in data set [3], the “Burning Rate” value amounted to 23 mm/min and the “UL-94 HB Rating” value was “HBF”.

As for `O=P1(NCCNP2(=O)Oc3ccccc3-c3ccccc32)Oc2ccccc2-c2ccccc21` (centres unmarked) [EDAB-DOPO], in data set [1], the “effect of doubling the amount of FR on flame height and extinguishing of the flame” value is “no significant effect”. Moreover, in data set [2] (setting [6]), the “BKZ Classification” value is “Class 5 (flame does not reach the top level of the sample holder (150 mm). duration ≦ 20 s)”. The “flammability performance versus TCPP” value in data set [2] (polyether foam, lower density, 2.8 pphp water, columns 3 and 5) was “works better at least in vertical tests”. The “effect on flammability versus foam without FR” value in data set [2] (polyether foam, water 1.6 pphp, columns 4 and 1) is on record as “positive effect on flammability”. Further, in data set [2] (polyether foam, water 1.6 pphp, columns 4 and 2), the “flammability performance versus TCPP” value is reported as “works at least as well than TCPP”. In addition, in data set [5], the “Td1: Temperature for 10% weight loss” value is 355 °C, the “% Char at 800° C.” value amounted to 7% and the “TdMax: Temperature” value was determined as 415 °C. Besides, in data set [3] (5% FR in flexible PU foam), the “Burning Rate” value turned out to be 25 mm/min, the “UL-94 HB Rating” value was “HF-1” and the “flame retardancy effect compared to unmodified DOPO” value is on record as “better flame retardancy effect as compared to unmodified DOPO”. Moreover, the “water solubility in words” value in data set [4] is given as “only very small amounts”. Also, in data set [4] (setting [7]), the solubility is 393 mg/L. For the same molecule, in data set [4] (setting [8]), the solubility was determined as 0.8 mmol/L. Also, the solubility in data set [4] (setting [9]) was 501 mg/L. In data set [4] (setting [10]), the solubility is 1.03 mmol/L.

Consider `O=P1(NCCOP2(=O)Oc3ccccc3-c3ccccc32)Oc2ccccc2-c2ccccc21` (centres unmarked) [EAB-DOPO], for which, in data set [5], the “Td1: Temperature for 10% weight loss” value was found to be 311 °C, the “% Char at 800° C.” value is given as 2% and the “TdMax: Temperature” value came out at 387 °C.

On to `O=P1(N2CCN(P3(=O)Oc4ccccc4-c4ccccc43)CC2)Oc2ccccc2-c2ccccc21` (centres unmarked) [PB-DOPO], for which, in data set [2] (setting [6]), the “BKZ Classification” value is on record as “Class 5 (flame does not reach the top level of the sample holder (150 mm). duration ≦ 20 s)”. In data set [5], the “Td1: Temperature for 10% weight loss” value amounted to 387 °C, the “% Char at 800° C.” value is reported as 5% and the “TdMax: Temperature” value was 433 °C. In data set [3] (5% FR in flexible PU foam), the “Burning Rate” value was 57 mm/min and the “UL-94 HB Rating” value was “HBF”.

Turning to `O=P1(NCCN(CCNP2(=O)Oc3ccccc3-c3ccccc32)P2(=O)Oc3ccccc3-c3ccccc32)Oc2ccccc2-c2ccccc21` (centres unmarked) [TDETA-DOPO], the “BKZ Classification” value in data set [2] (setting [6]) was “Class 5 (flame does not reach the top level of the sample holder (150 mm). duration ≦ 20 s)”. In data set [5], the “Td1: Temperature for 10% weight loss” value is 294 °C, the “% Char at 800° C.” value came to 2% and the “TdMax: Temperature” value worked out at 385 °C. For the same molecule, the “UL-94 HB Rating” value in data set [3] (5% FR in flexible PU foam) was “HF-1”.

Values taken from patent US9650497B2, “Phosphonamidates-synthesis and flame retardant applications” (EMPA EIDGENOSSISCHE MATERIALPRUFUNGS- UND FORSCHUNGSANSTALT, priority 2011, dated 2017).
